# According to patent US12082582B2, “Synergistic preservative compositions, process for preparing the same and method of use thereof” (ISP INVESTMENTS LLC, priority 2018, dated 2024):
# Assays:
# Type in all cases: cell-based
# [1] = test system: E. coli; assay: Synergy study of PC and (CHA + IPMP), MIC by broth dilution; settings: compound acting alone
# Protocol: (§1) The synergistic activity of PC and (CHA+IPMP) compounds were performed against selected microbial strains.
# (§2) Tryptic Soy Broth (TSB) media was used for bacterial evaluations and Yeast Malt Broth (YMB) for fungal evaluations. The IPMP solution is prepared by combining 0.25% IPMP with 20% DMSO and water (q.s. 100%). The CHA solution was prepared by combining 0.5% CHA with 20% DMSO and water (q.s. 100%). The compounds are then added to the media (50 μL) and serially diluted. The same amount of PC was added to all wells (e.g. 50 μL of 6.25% solution). 100 μl of a suspension of the testing bacteria or fungi are added to a final concentration of approximately 10^6 CFU/ml in double concentrated media. The inoculated media is then incubated at 32° C. for 2-5 days for bacteria or at 28° C. for 3-7 days for fungi.
# (§3) The lowest concentration of each compound or mixture of compounds to inhibit visible growth is taken as the minimum inhibitory concentration (MIC). The MIC is taken as end points of activity. End points for the mixture of compound A (CHA) and compound B (IPMP) with and without PC are then compared with the end points for the pure active ingredient alone.
# (§4) Synergism was determined by a commonly used and accepted method described by Kull A. C; Eisman, P. C.; Sylwestrowicz, H. D. and Mayer, R. L. 1961. Applied Microbiology, 9:538-541 using the ratio determine by: Qa/QA+Qb/QB=Synergy Wherein: • QA is the concentration of compound A in PPM, acting alone, which produced an end point. • Qa is the concentration of compound A in PPM, in the mixture, which produced an end point. • QB is the concentration of compound B in PPM, acting alone, which produced an end point. • Qb is the concentration of compound B in PPM, in the mixture, which produced an end point When the sum of Qa/QA+Qb/QB is greater than one, antagonism is indicated. When the sum is equal to one, additive is indicated.
# (§5) The results comprise following parameters: 1. Test organism (bacteria or fungi), 2. The end-point activity in % measured by MIC for the compound A alone (QA), for compound A in the mixture (Qa), for compound B alone (QB), for compound B in the mixture (Qb), 3. The ratio of CHA and IPMP (compound A and B) in that particular combination, 4. The sum of Qa+Qb (total ppm that inhibited growth) and 5. and the synergy index (SI) based on the formula SI=Qa/QA+Qb/QB
# [2] = test system: A. niger; assay: as above; settings: compound acting alone
# Protocol: as §1, §2, §3, §4, §5
# [3] = test system: B. cepacia; assay: as above; settings: compound acting alone
# Protocol: as §1, §2, §3, §4, §5
# [4] = test system: C. albicans; assay: as above; settings: compound acting alone
# Protocol: as §1, §2, §3, §4, §5
# [5] = Antimicrobial and antifungal characteristics (MIC) of propylene carbonate alone
# Source text: In one embodiment of the application, the synergistic composition of propylene carbonate with one or more organic compounds or preservative compounds can provide broad spectrum antimicrobial properties. […] The presence of propylene carbonate in the composition can maximize the partitioning of the mixture of organic/preservative compounds into the water phase when added to an end-user composition comprising a mixture of oil and a water phase. Further, the propylene carbonate-based compositions or blends acts as a delivery agent for other preservative/organic actives that have low polarity with high dielectric constant making it a suitable blend to dissolve hydrophobic non-polar actives. The high dielectric constant of the composition enables it to partition the active ingredients towards the oil/water interface which is critical for maximum efficacy and reduces use levels of preservatives or boosters.
smiles,measurement,setting,value
"Cc1cc(O)ccc1C(C)C [IPMP, isopropyl methylphenol]","MIC, IPMP alone (QB)",[1],625 ppm
same,"MIC, IPMP alone (QB)",[2],156.3 ppm
same,"MIC, IPMP alone (QB)",[3],312.5 ppm
same,"MIC, IPMP alone (QB)",[4],312.5 ppm
CC1COC(=O)O1 (stereo not drawn) [Propylene carbonate],Antimicrobial and antifungal characteristics (MIC),[5],no significant antimicrobial and antifungal characteristics
"CCCCCCCC(=O)NO [CHA, caprylhydroxamic acid]",MIC,"[1]; Escherichia coli, read-out: MIC, CHA alone (QA)",625 µg/mL
same,MIC,"[2]; Aspergillus niger, read-out: MIC, CHA alone (QA)",312 µg/mL
same,MIC,"[3]; Burkholderia cepacia, read-out: MIC, CHA alone (QA)",312 µg/mL
same,MIC,"[4]; Candida albicans, read-out: MIC, CHA alone (QA)",312 µg/mL
